In patent US20100317647A1 (priority 2009, published 2010):

The compounds below were run against human Cat S (Homo sapiens, UniProt P25774) (assay: Cathepsin enzyme inhibition assay (fluorogenic peptide substrate cleavage)). Details: human Cat S 1 nM; substrate Z-Val-Val-Arg-AMC 20 μM; pH 6.5; fluorescence over 20 minutes.
Type: biochemical
How it was run: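 Fluorogenic cleavage of Z-Val-Val-Arg-AMC (20 μM) by 1 nM enzyme in 100 mM potassium phosphate pH 6.5, 5 mM EDTA, 5 mM DTT, 0.001% Triton X-100. Reaction started with substrate; fluorescence (ex 360/em 465 nm) followed over 20 minutes. IC50 by standard methods.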

human Cat S, sequence (P25774 115-331): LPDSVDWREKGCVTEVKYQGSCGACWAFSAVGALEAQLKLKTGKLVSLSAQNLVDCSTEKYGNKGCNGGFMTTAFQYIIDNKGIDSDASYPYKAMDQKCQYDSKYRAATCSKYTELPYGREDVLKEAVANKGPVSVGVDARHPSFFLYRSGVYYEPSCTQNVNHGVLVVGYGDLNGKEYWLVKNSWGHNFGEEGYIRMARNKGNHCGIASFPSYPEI

How did the IC50 turn out when `N#CCNC(=O)[C@@H]1C[C@@H](S(=O)(=O)c2ccccc2Cl)C[C@H]1C(=O)N1CCOCC1` [Example 3, (1R,2R,4R)-4-(2-Chloro-benzenesulfonyl)-2-(morpholine-4-carbonyl)-cyclopentanecarboxylic acid cyanomethyl-amide] was run?
Its IC50 is 0.5 nM.

How did the IC50 turn out when `Cc1ccc(S(=O)(=O)[C@@H]2C[C@@H](C(=O)NCC#N)[C@H](C(=O)N3CCOCC3)C2)cc1` [Example 4, (1R,2R,4R)-2-(Morpholine-4-carbonyl)-4-(toluene-4-sulfonyl)-cyclopentanecarboxylic acid cyanomethyl-amide] was run?
Its IC50 is 0.6 nM.

Which IC50 does the source give for `Cc1cccc(S(=O)(=O)[C@@H]2C[C@@H](C(=O)NCC#N)[C@H](C(=O)N3CCOCC3)C2)c1` [Example 5, (1R,2R,4R)-2-(Morpholine-4-carbonyl)-4-(toluene-3-sulfonyl)-cyclopentanecarboxylic acid cyanomethyl-amide] here?
The IC50 was 0.6 nM.

With `N#CCNC(=O)[C@@H]1C[C@@H](S(=O)(=O)c2ccc(F)cc2F)C[C@H]1C(=O)N1CCOCC1` [Example 6, (1R,2R,4R)-4-(2,4-Difluoro-benzenesulfonyl)-2-(morpholine-4-carbonyl)-cyclopentanecarboxylic acid cyanomethyl-amide] as the compound, how does the IC50 read?
The IC50 was 0.8 nM.

How did the IC50 turn out when `N#CCNC(=O)[C@@H]1C[C@@H](S(=O)(=O)c2ccc(F)c(Cl)c2)C[C@H]1C(=O)N1CCOCC1` [Example 7, (1R,2R,4R)-4-(3-Chloro-4-fluoro-benzenesulfonyl)-2-(morpholine-4-carbonyl)-cyclopentanecarboxylic acid cyanomethyl-amide] was run?
Its IC50 is 0.7 nM.

Which IC50 does the source give for `Cc1cc(Cl)ccc1S(=O)(=O)[C@@H]1C[C@@H](C(=O)NCC#N)[C@H](C(=O)N2CCOCC2)C1` [Example 8, (1R,2R,4R)-4-(4-Chloro-2-methyl-benzenesulfonyl)-2-(morpholine-4-carbonyl)-cyclopentanecarboxylic acid cyanomethyl-amide] here?
Its IC50 is 0.4 nM.

How did the IC50 turn out when `N#CC1(NC(=O)[C@@H]2C[C@@H](S(=O)(=O)c3ccccc3Cl)C[C@H]2C(=O)N2CCOCC2)CC1` [Example 9, (1R,2R,4R)-4-(2-Chloro-benzenesulfonyl)-2-(morpholine-4-carbonyl)-cyclopentanecarboxylic acid (1-cyano-cyclopropyl)-amide] was run?
The IC50 was 0.9 nM.

For `N#CC1(NC(=O)[C@@H]2C[C@@H](S(=O)(=O)c3ccccc3)C[C@H]2C(=O)O)CC1` [Example 10, (1R,2R,4R)-4-Benzenesulfonyl-2-(1-cyano-cyclopropylcarbamoyl)-cyclopentanecarboxylic acid], which IC50 is on record?
The IC50 was 425 nM.

For `N#CC1(NC(=O)[C@@H]2C[C@@H](S(=O)(=O)c3ccccc3)C[C@H]2C(=O)N2CC3(COC3)C2)CC1` [Example 11, (1R,2R,4R)-4-Benzenesulfonyl-2-(2-oxa-6-aza-spiro[3.3]heptane-6-carbonyl)-cyclopentanecarboxylic acid (1-cyano-cyclopropyl)-amide], which IC50 is on record?
The IC50 was 3 nM.

Which IC50 does the source give for `N#CC1(NC(=O)[C@@H]2C[C@@H](S(=O)(=O)c3ccccc3)C[C@H]2C(=O)N2CCCCC2)CC1` [Example 12, (1R,2R,4R)-4-Benzenesulfonyl-2-(piperidine-1-carbonyl)-cyclopentanecarboxylic acid (1-cyano-cyclopropyl)-amide] here?
The IC50 was 0.8 nM.

How did the IC50 turn out when `N#CC1(NC(=O)[C@@H]2C[C@@H](S(=O)(=O)c3ccccc3)C[C@H]2C(=O)N2CCC(O)CC2)CC1` [Example 13, (1R,2R,4R)-4-Benzenesulfonyl-2-(4-hydroxy-piperidine-1-carbonyl)-cyclopentanecarboxylic acid (1-cyano-cyclopropyl)-amide] was run?
The IC50 was 1 nM.

How did the IC50 turn out when `N#CC1(NC(=O)[C@@H]2C[C@@H](S(=O)(=O)c3ccccc3)C[C@H]2C(=O)N2CCNCC2)CC1` [Example 14, (1R,2R,4R)-4-Benzenesulfonyl-2-(piperazine-1-carbonyl)-cyclopentanecarboxylic acid (1-cyano-cyclopropyl)-amide] was run?
Its IC50 is 10.9 nM.

With `N#CC1(NC(=O)[C@@H]2C[C@@H](S(=O)(=O)c3ccccc3)C[C@H]2C(=O)N2CC(O)C2)CC1` [Example 15, (1R,2R,4R)-4-Benzenesulfonyl-2-(3-hydroxy-azetidine-1-carbonyl)-cyclopentanecarboxylic acid (1-cyano-cyclopropyl)-amide] as the compound, how does the IC50 read?
The IC50 was 7.4 nM.

For `C[C@@H]1CN(C(=O)[C@@H]2C[C@H](S(=O)(=O)c3ccccc3)C[C@H]2C(=O)NC2(C#N)CC2)C[C@H](C)O1` [Example 16, (1R,2R,4R)-4-Benzenesulfonyl-2-((2S,6R)-2,6-dimethyl-morpholine-4-carbonyl)-cyclopentanecarboxylic acid (1-cyano-cyclopropyl)-amide], which IC50 is on record?
The IC50 was 0.4 nM.

For `N#CC1(NC(=O)[C@@H]2C[C@@H](S(=O)(=O)c3ccccc3)C[C@H]2C(=O)N2C[C@H]3CC[C@@H](C2)O3)CC1` [Example 17, (1R,2R,4R)-4-Benzenesulfonyl-2-((1R,5S)-8-oxa-3-aza-bicyclo[3.2.1]octane-3-carbonyl)-cyclopentanecarboxylic acid (1-cyano-cyclopropyl)-amide], which IC50 is on record?
The IC50 was 1.1 nM.

For `N#CC1(NC(=O)[C@@H]2C[C@@H](S(=O)(=O)c3ccccc3)C[C@H]2C(=O)N2[C@@H]3CC[C@H]2COC3)CC1` [Example 18, (1R,2R,4R)-4-Benzenesulfonyl-2-((1R,5S)-3-oxa-8-aza-bicyclo[3.2.1]octane-8-carbonyl)-cyclopentanecarboxylic acid (1-cyano-cyclopropyl)-amide], which IC50 is on record?
The IC50 was 2 nM.

How did the IC50 turn out when `CC1CCN(C(=O)[C@@H]2C[C@H](S(=O)(=O)c3ccccc3)C[C@H]2C(=O)NC2(C#N)CC2)CC1` [Example 19, (1R,2R,4R)-4-Benzenesulfonyl-2-(4-methyl-piperidine-1-carbonyl)-cyclopentanecarboxylic acid (1-cyano-cyclopropyl)-amide] was run?
The IC50 was 0.5 nM.

`N#CC1(NC(=O)[C@@H]2C[C@@H](S(=O)(=O)c3ccccc3)C[C@H]2C(=O)N2CCS(=O)(=O)CC2)CC1` [Example 20, (1R,2R,4R)-4-Benzenesulfonyl-2-(1,1-dioxo-1-thiomorpholine-4-carbonyl)-cyclopentanecarboxylic acid (1-cyano-cyclopropyl)-amide] was tested. Which IC50 did it give?
Its IC50 is 4.3 nM.

With `CCOC1CN(C(=O)[C@@H]2C[C@H](S(=O)(=O)c3ccccc3)C[C@H]2C(=O)NC2(C#N)CC2)C1` [Example 21, (1R,2R,4R)-4-Benzenesulfonyl-2-(3-ethoxy-azetidine-1-carbonyl)-cyclopentanecarboxylic acid (1-cyano-cyclopropyl)-amide] as the compound, how does the IC50 read?
Its IC50 is 4.9 nM.

Which IC50 does the source give for `COC1CN(C(=O)[C@@H]2C[C@H](S(=O)(=O)c3ccccc3)C[C@H]2C(=O)NC2(C#N)CC2)C1` [Example 22, (1R,2R,4R)-4-Benzenesulfonyl-2-(3-methoxy-azetidine-1-carbonyl)-cyclopentanecarboxylic acid (1-cyano-cyclopropyl)-amide] here?
The IC50 was 5.5 nM.

With `N#CC1(NC(=O)[C@@H]2C[C@@H](S(=O)(=O)c3ccccc3)C[C@H]2C(=O)N2CCCC2)CC1` [Example 23, (1R,2R,4R)-4-Benzenesulfonyl-2-(pyrrolidine-1-carbonyl)-cyclopentanecarboxylic acid (1-cyano-cyclopropyl)-amide] as the compound, how does the IC50 read?
Its IC50 is 1.5 nM.

Which IC50 does the source give for `N#CC1(NC(=O)[C@@H]2C[C@@H](S(=O)(=O)c3ccccc3)C[C@H]2C(=O)N2CCC2)CC1` [Example 24, (1R,2R,4R)-2-(Azetidine-1-carbonyl)-4-benzenesulfonyl-cyclopentanecarboxylic acid (1-cyan o-cyclopropyl)-amide] here?
The IC50 was 9.6 nM.

With `CCN(CC)C(=O)[C@@H]1C[C@H](S(=O)(=O)c2ccccc2)C[C@H]1C(=O)NC1(C#N)CC1` [Example 25, (1R,2R,4R)-4-Benzenesulfonyl-cyclopentane-1,2-dicarboxylic acid 1-[(1-cyano-cyclopropyl)-amide]2-diethylamide] as the compound, how does the IC50 read?
Its IC50 is 2.6 nM.

How did the IC50 turn out when `CN1CCN(C(=O)[C@@H]2C[C@H](S(=O)(=O)c3ccccc3)C[C@H]2C(=O)NC2(C#N)CC2)CC1` [Example 26, (1R,2R,4R)-4-Benzenesulfonyl-2-(4-methyl-piperazine-1-carbonyl)-cyclopentanecarboxylic acid (1-cyano-cyclopropyl)-amide] was run?
The IC50 was 1.5 nM.

Which IC50 does the source give for `CN(C)C(=O)[C@@H]1C[C@H](S(=O)(=O)c2ccccc2)C[C@H]1C(=O)NC1(C#N)CC1` [Example 27, (1R,2R,4R)-4-Benzenesulfonyl-cyclopentane-1,2-dicarboxylic acid 1-[(1-cyano-cyclopropyl)-amide]2-dimethylamide] here?
Its IC50 is 6.2 nM.

How did the IC50 turn out when `CC(C)(C)NC(=O)[C@@H]1C[C@H](S(=O)(=O)c2ccccc2)C[C@H]1C(=O)NC1(C#N)CC1` [Example 28, (1R,2R,4S)-4-Benzenesulfonyl-cyclopentane-1,2-dicarboxylic acid 1-tert-butylamide 2-[(1-cyano-cyclopropyl)-amide]] was run?
Its IC50 is 25.5 nM.

How did the IC50 turn out when `CNC(=O)[C@@H]1C[C@H](S(=O)(=O)c2ccccc2)C[C@H]1C(=O)NC1(C#N)CC1` [Example 29, (1R,2R,4S)-4-Benzenesulfonyl-cyclopentane-1,2-dicarboxylic acid 1-[(1-cyano-cyclopropyl)-amide]2-methylamide] was run?
The IC50 was 72.5 nM.

How did the IC50 turn out when `Cc1cc(Cl)ccc1S(=O)(=O)[C@@H]1C[C@@H](C(=O)NC(C#N)c2ccccc2)[C@H](C(=O)N2CCOCC2)C1` (stereo partly drawn) [Example 31, (1R,2R,4R)-4-(4-Chloro-2-methyl-benzenesulfonyl)-2-(morpholine-4-carbonyl)-cyclopentanecarboxylic acid (cyano-phenyl-methyl)-amide] was run?
Its IC50 is 0.2 nM.

Which IC50 does the source give for `Cc1cc(Cl)ccc1S(=O)(=O)[C@@H]1C[C@@H](C(=O)NCC#N)[C@H](C(=O)N2C[C@@H](C)O[C@@H](C)C2)C1` [Example 32, (1R,2R,4R)-4-(4-Chloro-2-methyl-benzenesulfonyl)-2-((2S,6R)-2,6-dimethyl-morpholine-4-carbonyl)-cyclopentanecarboxylic acid cyanomethyl-amide] here?
The IC50 was 0.4 nM.
